Tests used:
[1] = biological target: Gppcp-bound recombinant K-Ras4B G12C mutant protein (amino acids 1-169, C51S/C80L/C118S) (Homo sapiens, UniProt P01116, C118S/C51S/C80L/G12C); test: KRASG12C binding assay (LC-MS compound binding rate); conditions: test compound final concentration 0.5 μM, 25° C., 1 hour
Outline: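 Gppcp-bound K-Ras4B G12C (aa 1-169, C51S/C80L/C118S) at 50 nM in 1×TBS, 0.1 mM TCEP, 0.25 mM MgCl2, 50 μM Gppcp was incubated 1 hour at 25° C with compound at 0.5 μM final. Intact-protein LC-MS gave binding rate as single-adduct signal over total KRAS signal, graded A (≥80%) to E (<20%).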

[2] = biological target: T1, GMPPNP-bound KRAS G12C protein and cRAF RAS-binding domain (cRAF-RBD) (Homo sapiens, UniProt P01116, G12C); test: Inhibitory activity on interaction between KRAS G12C and cRAF (Alpha technology); assay type: biochemical; conditions: GMPPNP-bound KRAS G12C incubated with compound at 25° C. for 1 hour, then cRAF-RBD, Alpha signal; read-out: IC50
T1 construct: made in house; host or cells: E. coli
Outline: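 GMPPNP-loaded His-KRAS G12C (aa 1-169) preincubated 1 h at 25 °C with compound (pH 7.5 Tris, 1 mM MgCl2, TCEP, Tween 20), then cRAF-RBD (aa 50-132) and Alpha reagents added for 1.5 h at RT. Inhibition scaled between DMSO (0%) and GDP-bound KRAS (100%); IC50 by curve fitting.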

MIA PaCa-2 cells = test: Growth inhibition activity on KRAS-G12C mutant cell line (MIA PaCa-2); assay type: cell-based; conditions: Homo sapiens, 72 h; MIA PaCa-2, 3-day culture, CellTiter-Glo 3D
Protocol: MIA PaCa-2 cells (given by Sumitomo Dainippon Pharma Co., Ltd.), which are a KRAS-G12C mutant human pancreas cancer cell line, were suspended in a 10% fetal bovine serum-containing RPMI1640 medium (manufactured by Fujifilm Wako Pure Chemical Corporation.). The cell suspension was seeded into each well of a 384-well U bottom microplate and cultured in an incubator containing 5% CO2 gas at 37° C. for 1 day. The compounds obtained in the “Preparation of Compounds” section were used as test compounds and were dissolved in DMSO, respectively, and each test compound was diluted with DMSO to give a concentration 500 times the final concentration. The resultant solution of the test compound in DMSO was diluted with the medium used for suspending cells and added to each well of the cell-culture plate to give a DMSO final concentration of 0.2%, followed by culture in an incubator containing 5% CO2 gas at 37° C. for another 3 days. The cell count after 3-day culture in the presence of the test compound was measured using CellTiter-Glo 3D Reagent (manufactured by Promega Corporation). All wells were added with CellTiter-Glo 3D Reagent and mixed for 10 minutes. 30 minutes after mixing, luminescence was measured by a plate reader. The growth inhibition rate was calculated from the following equation, and the concentration of the test compound at which 50% inhibition was achieved (IC50 (nM)) was determined. […] Growth Inhibition Rate (%)=(C−T)/(C)×100 • T: the emission intensity in a well into which a test compound was added. • C: the emission intensity in a well into which a test compound was not added.

| IC50 [2] [nM] | IC50 (MIA PaCa-2 cells) [nM] | Compound | binding rate [1] |
| --- | --- | --- | --- |
| 57 | 43 | CO[C@H]1CC[C@H](NC/C=C/C(=O)Nc2ccc(C(=O)c3ccc4c(-c5c(Cl)cc6c(ncn6C)c5Cl)cccn34)cc2C#N)CC1 (single isomer, unassigned) [Example 62, (E)-N-(2-cyano-4-(8-(4,6-dichloro-1-methyl-1H-benzo[d]imidazol-5-yl)indolizine-3-carbonyl)phenyl)-4-(((1r,4r)-4-methoxycyclohexyl)amino)but-2-enamide] | A (A binding rate of 80% or more is rated “A”) |
| 50 | 83 | CO[C@H]1CC[C@H](NC/C=C/C(=O)Nc2ccc(C(=O)Nc3cccc(-c4cc5nc6n(c5cc4C)CCC6)n3)cc2C#N)CC1 [Example 3, 3-cyano-4-((E)-4-(((1r,4r)-4-methoxycyclohexyl)amino)but-2-enamido)-N-(6-(7-methyl-2,3-dihydro-1H-benzo[d]pyrrolo[1,2-a]imidazol-6-yl)pyridin-2-yl)benzamide] | B (a binding rate of 60% or more and less than 80% is rated “B”) |
| 29 | 80 | Cc1cc2c(cc1-c1cccn3c(C(=O)c4ccc(NC(=O)/C=C/CNC(C)(C)C)c(C#N)c4)ccc13)ncn2C [Example 5, (E)-4-(tert-butylamino)-N-(2-cyano-4-(8-(1,6-dimethyl-1H-benzo[d]imidazol-5-yl)indolizine-3-carbonyl)phenyl)but-2-enamide] | A (A binding rate of 80% or more is rated “A”) |
| 15 | 43 | CO[C@H]1CC[C@H](NC/C=C/C(=O)Nc2ccc(C(=O)c3ccc4c(-c5cc6ncn(C)c6cc5C(F)(F)F)cccn34)cc2C#N)CC1 [Example 6, (E)-N-(2-cyano-4-(8-(1-methyl-6-(trifluoromethyl)-1H-benzo[d]imidazol-5-yl)indolizine-3-carbonyl)phenyl)-4-(((1r,4r)-4-methoxycyclohexyl)amino)but-2-enamide] | A (A binding rate of 80% or more is rated “A”) |
| 35 | 49 | CO[C@H]1CC[C@H](NC/C=C/C(=O)Nc2ccc(C(=O)c3ccc4c(-c5cc6nc(C)n(C)c6cc5C(F)(F)F)cccn34)cc2C#N)CC1 [Example 7, (E)-N-(2-cyano-4-(8-(1,2-dimethyl-6-(trifluoromethyl)-1H-benzo[d]imidazol-5-yl)indolizine-3-carbonyl)phenyl)-4-(((1r,4r)-4-methoxycyclohexyl)amino)but-2-enamide] | A (A binding rate of 80% or more is rated “A”) |
| 19 | 52 | CO[C@H]1CC[C@H](NC/C=C/C(=O)Nc2ccc(C(=O)c3c[nH]c4c(-c5cc6ncn(C)c6cc5C(F)(F)F)cccc34)cc2C#N)CC1 [Example 8, (E)-N-(2-cyano-4-(7-(1-methyl-6-(trifluoromethyl)-1H-benzo[d]imidazol-5-yl)-1H-indole-3-carbonyl)phenyl)-4-(((1r,4r)-4-methoxycyclohexyl)amino)but-2-enamide] | A (A binding rate of 80% or more is rated “A”) |
| 66 | 100 | CO[C@H]1CC[C@H](NC/C=C/C(=O)Nc2ccc(C(=O)c3cnc4c(-c5cc6ncn(C)c6cc5C)cccn34)cc2C#N)CC1 [Example 9, (E)-N-(2-cyano-4-(8-(1,6-dimethyl-1H-benzo[d]imidazol-5-yl)imidazo[1,2-a]pyridine-3-carbonyl)phenyl)-4-(((1r,4r)-4-methoxycyclohexyl)amino)but-2-enamide] | B (a binding rate of 60% or more and less than 80% is rated “B”) |
| 95 | 410 | CCc1nc2cc(-c3cccc4c3CCN4C(=O)c3ccc(NC(=O)/C=C/CN[C@H]4CC[C@H](N5CCCC5)CC4)c(C#N)c3)c(C(F)(F)F)cc2n1C [Example 29, (E)-N-(2-cyano-4-(4-(2-ethyl-1-methyl-6-(trifluoromethyl)-1H-benzo[d]imidazol-5-yl)indoline-1-carbonyl)phenyl)-4-(((1r,4r)-4-(pyrrolidin-1-yl)cyclohexyl)amino)but-2-enamide] | A (A binding rate of 80% or more is rated “A”) |
| 75 | 370 | CCc1nc2cc(-c3cccc4c3CCN4C(=O)c3ccc(NC(=O)/C=C/CNC4CCN(C(C)C)CC4)c(C#N)c3)c(C(F)(F)F)cc2n1C [Example 30, (E)-N-(2-cyano-4-(4-(2-ethyl-1-methyl-6-(trifluoromethyl)-1H-benzo[d]imidazol-5-yl)indoline-1-carbonyl)phenyl)-4-((1-isopropylpiperidin-4-yl)amino)but-2-enamide] | A (A binding rate of 80% or more is rated “A”) |
| 26 | 86 | CO[C@H]1CC[C@H](NC/C=C/C(=O)Nc2ccc(C(=O)c3ccc4c(-c5cc6nc7n(c6cc5C(F)(F)F)CCC7)cccn34)cc2C#N)CC1 [Example 31, (E)-N-(2-cyano-4-(8-(7-(trifluoromethyl)-2,3-dihydro-1H-benzo[d]pyrrolo[1,2-a]imidazol-6-yl)indolizine-3-carbonyl)phenyl)-4-(((1r,4r)-4-methoxycyclohexyl)amino)but-2-enamide] | A (A binding rate of 80% or more is rated “A”) |
| 27 | 310 | CCc1cc2c(cc1-c1cccc(NC(=O)c3ccc(NC(=O)/C=C/CN[C@H]4CC[C@H](OC)CC4)c(C#N)c3)c1)nc1n2CCC1 [Example 32, 3-cyano-N-(3-(7-ethyl-2,3-dihydro-1H-benzo[d]pyrrolo[1,2-a]imidazol-6-yl)phenyl)-4-((E)-4-(((1r,4r)-4-methoxycyclohexyl)amino)but-2-enamido)benzamide] | B (a binding rate of 60% or more and less than 80% is rated “B”) |
| 130 | – | CO[C@H]1CC[C@H](NC/C=C/C(=O)Nc2ccc(C(=O)c3ccc4c(-c5cc6cn(C)nc6cc5C)cccn34)cc2C#N)CC1 [Example 76, (E)-N-(2-cyano-4-(8-(2,6-dimethyl-2H-indazol-5-yl)indolizine-3-carbonyl)phenyl)-4-(((1r,4r)-4-methoxycyclohexyl)amino)but-2-enamide] | A (A binding rate of 80% or more is rated “A”) |
| 330 | – | Cn1cnc2cc(-c3cccn4c(C(=O)c5ccc(NC(=O)/C=C/CNC(C)(C)C)c(Cl)c5)ccc34)c(C(F)(F)F)cc21 [Example 77, (E)-4-(tert-butylamino)-N-(2-chloro-4-(8-(1-methyl-6-(trifluoromethyl)-1H-benzo[d]imidazol-5-yl)indolizine-3-carbonyl)phenyl)but-2-enamide] | C (a binding rate of 40% or more and less than 60% is rated “C”) |
| 440 | – | CO[C@H]1CC[C@H](NC/C=C/C(=O)Nc2ccc(C(=O)c3ccc4c(-c5ccc6nn(C)c(Cl)c6c5Cl)cccn34)cc2C#N)CC1 [Example 79, (E)-N-(2-cyano-4-(8-(3,4-dichloro-2-methyl-2H-indazol-5-yl)indolizine-3-carbonyl)phenyl)-4-(((1r,4r)-4-methoxycyclohexyl)amino)but-2-enamide] | A (A binding rate of 80% or more is rated “A”) |
| 150 | – | CO[C@H]1CC[C@H](NC/C=C/C(=O)Nc2ccc(C(=O)c3ccc4c(-c5c(C)cc6c(ncn6C)c5-c5cccnc5)cccn34)cc2C#N)CC1 [Example 82, (E)-N-(2-cyano-4-(8-(1,6-dimethyl-4-(pyridin-3-yl)-1H-benzo[d]imidazol-5-yl)indolizine-3-carbonyl)phenyl)-4-(((1r,4r)-4-methoxycyclohexyl)amino)but-2-enamide] | A (A binding rate of 80% or more is rated “A”) |
| 440 | – | CO[C@H]1CC[C@H](NC/C=C/C(=O)Nc2ccc(C(=O)c3c[nH]c4c(-c5cc6ncn(C)c6cc5C(F)(F)F)cccc34)c(F)c2)CC1 [Example 83, (E)-N-(3-fluoro-4-(7-(1-methyl-6-(trifluoromethyl)-1H-benzo[d]imidazol-5-yl)-1H-indole-3-carbonyl)phenyl)-4-(((1r, 4r)-4-methoxycyclohexyl)amino)but-2-enamide] | A (A binding rate of 80% or more is rated “A”) |

Reference: patent US12673041B2, “4-aminobut-2-enamide derivatives and salt thereof” (TAIHO PHARMACEUTICAL CO., LTD., priority 2019, dated 2026)
